Measured values: US11400059B2, “Treatment of pain and/or pain related symptoms associated with dysmenorrhea” (ALYRA BIOTECH PTY LTD, priority 2017, dated 2022)

Experiments:
Type in all cases: cell-based
hNOD1 = target: T1, hNOD1 (Homo sapiens, UniProt Q9Y239); test: Human NLR antagonist screening, NF-κB SEAP reporter in HEK293 cells; conditions: antagonist mode, Ami 1 μM, +C12-iE-DAP 100 ng/mL, No Sample 10, Control− 1
T1 construct: expressed in transfected cells; host or cells: HEK293
T1 sequence (Q9Y239 1-953): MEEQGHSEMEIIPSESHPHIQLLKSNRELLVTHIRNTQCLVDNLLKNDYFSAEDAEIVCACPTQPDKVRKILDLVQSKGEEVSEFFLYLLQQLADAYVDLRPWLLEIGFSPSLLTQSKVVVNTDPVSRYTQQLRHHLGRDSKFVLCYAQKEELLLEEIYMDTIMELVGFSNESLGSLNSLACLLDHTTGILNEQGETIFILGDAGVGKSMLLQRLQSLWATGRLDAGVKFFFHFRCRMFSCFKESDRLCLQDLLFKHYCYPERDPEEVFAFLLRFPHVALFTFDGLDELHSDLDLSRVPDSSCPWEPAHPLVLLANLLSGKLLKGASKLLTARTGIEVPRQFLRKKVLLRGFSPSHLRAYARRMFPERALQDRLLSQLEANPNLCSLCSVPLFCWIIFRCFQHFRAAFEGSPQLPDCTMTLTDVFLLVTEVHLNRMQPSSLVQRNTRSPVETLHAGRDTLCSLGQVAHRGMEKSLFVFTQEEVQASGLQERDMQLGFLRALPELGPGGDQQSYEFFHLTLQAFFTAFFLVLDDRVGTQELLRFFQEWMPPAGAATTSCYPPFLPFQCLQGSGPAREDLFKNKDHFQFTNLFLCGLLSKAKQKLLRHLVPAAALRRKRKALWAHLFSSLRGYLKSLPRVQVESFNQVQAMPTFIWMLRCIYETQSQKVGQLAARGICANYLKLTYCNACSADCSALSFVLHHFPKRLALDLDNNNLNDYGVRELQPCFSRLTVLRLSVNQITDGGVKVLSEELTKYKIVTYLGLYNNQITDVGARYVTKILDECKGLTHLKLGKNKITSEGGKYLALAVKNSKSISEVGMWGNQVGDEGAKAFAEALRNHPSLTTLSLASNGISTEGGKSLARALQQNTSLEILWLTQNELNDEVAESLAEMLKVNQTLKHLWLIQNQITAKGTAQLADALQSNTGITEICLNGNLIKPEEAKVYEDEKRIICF
Procedure: (§1) Toll-Like Receptor (TLR), NOD-Like Receptor (NLR) and C-Type Lectin Receptor (CLR) stimulation were tested by assessing NF-κB activation in HEK293 cells expressing a given TLR, NLR or CLR. The activity of the test articles was tested at one concentration and compared to control ligands. These steps were performed in triplicate. hNOD1: C12-iE-DAP at 1 μg/mL Antagonist: 100 ng/mL. In a 96-well plate (200 μL total volume) containing the appropriate cells (50,000-75,000 cells/well), 20 μL of the test article or the positive control ligand was added to the wells. For the antagonist assay, the test article was incubated with the cells, at 37° C. with 5% CO2, for 30 minutes prior to the addition of the positive control ligand to the wells. The media added to the wells was designed for the detection of NF-κB induced SEAP expression. After a 16-24 hr incubation the optical density (OD) was read at 650 nm on a Molecular Devices SpectraMax 340PC absorbance detector. Fold induction (ratio of average induced value to average non-induced value) was determined for each TLR, NOD1, NOD2, Dectin-1a, Dectin-1b.

Human NOD2 = target: T2, Human NOD2 (Homo sapiens, UniProt Q9HC29); test: as above; conditions: antagonist mode, Ami 1 μM, +L18-MDP 50 ng/mL, No Sample 18, Control− 1
T2 construct: expressed in transfected cells; host or cells: HEK293
Procedure: as §1, with “hNOD2: L18-MDP” for “hNOD1: C12-iE-DAP”, “100 ng/mL” for “1 μg/mL”, “50” for “100”

Human Dectin-1b = target: T3, Human Dectin-1b (Homo sapiens, UniProt Q9BXN2); test: Human CLR antagonist screening, NF-κB SEAP reporter in HEK293 cells; conditions: antagonist mode, Ami 1 μM
T3 construct: expressed in transfected cells; host or cells: HEK293
T3 sequence (Q9BXN2 1-201 isoform Q9BXN2-2): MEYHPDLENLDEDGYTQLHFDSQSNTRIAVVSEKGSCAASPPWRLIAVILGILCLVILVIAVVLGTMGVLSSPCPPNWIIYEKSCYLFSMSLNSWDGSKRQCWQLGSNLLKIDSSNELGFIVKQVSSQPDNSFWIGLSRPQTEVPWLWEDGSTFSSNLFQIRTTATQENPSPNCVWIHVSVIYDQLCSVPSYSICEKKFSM
Procedure: as §1, with “triplicate. hDectin-1a and hDectin-1b: WGP Soluble (0-glucan from S. cerevisiae)” for “triplicate. hNOD1: C12-iE-DAP”, “at 10 ng/mL Antagonist: 5 ng/mL. Curdlan at 100 μg/mL. Antagonist: 100 μg/mL. Zymosan Depleted (hot alkali treated S. cerevisiae) at 5” for “at 1”, “Antagonist: 3 μg/mL.” for “Antagonist: 100 ng/mL.”

T2 sequence (Q9HC29 whole entry): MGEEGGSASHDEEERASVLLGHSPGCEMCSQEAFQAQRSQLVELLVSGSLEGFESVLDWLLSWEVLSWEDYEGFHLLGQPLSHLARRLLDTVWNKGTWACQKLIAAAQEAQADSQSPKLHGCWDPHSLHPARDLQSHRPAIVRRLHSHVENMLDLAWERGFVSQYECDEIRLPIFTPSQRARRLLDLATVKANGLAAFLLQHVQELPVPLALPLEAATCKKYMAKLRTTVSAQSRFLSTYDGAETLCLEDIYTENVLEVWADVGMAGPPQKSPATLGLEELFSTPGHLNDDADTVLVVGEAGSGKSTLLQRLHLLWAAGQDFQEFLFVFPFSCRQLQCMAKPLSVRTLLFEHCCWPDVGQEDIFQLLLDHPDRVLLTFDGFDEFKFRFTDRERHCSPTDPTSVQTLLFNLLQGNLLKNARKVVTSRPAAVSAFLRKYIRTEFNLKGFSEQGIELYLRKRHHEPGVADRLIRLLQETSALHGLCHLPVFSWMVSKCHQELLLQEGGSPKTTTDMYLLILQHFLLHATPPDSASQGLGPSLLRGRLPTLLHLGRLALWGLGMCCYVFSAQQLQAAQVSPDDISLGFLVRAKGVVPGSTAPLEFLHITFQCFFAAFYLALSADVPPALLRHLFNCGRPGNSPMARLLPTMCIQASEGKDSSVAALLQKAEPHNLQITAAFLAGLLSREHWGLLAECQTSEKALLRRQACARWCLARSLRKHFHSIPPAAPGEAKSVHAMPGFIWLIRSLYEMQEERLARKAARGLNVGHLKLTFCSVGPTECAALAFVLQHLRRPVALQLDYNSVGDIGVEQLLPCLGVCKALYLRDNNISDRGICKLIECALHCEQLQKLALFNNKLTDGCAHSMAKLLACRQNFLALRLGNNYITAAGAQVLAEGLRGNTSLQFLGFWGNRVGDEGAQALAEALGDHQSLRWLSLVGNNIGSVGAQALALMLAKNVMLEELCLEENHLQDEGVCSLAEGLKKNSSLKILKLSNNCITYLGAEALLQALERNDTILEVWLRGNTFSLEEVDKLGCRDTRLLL

CN(C)CCC=C1c2ccccc2CCc2ccccc21 [Amitriptyline]
Fold Induction (hNOD1): slight inhibitory effect | Fold Induction (hNOD1; listed as Ami): 9 | Fold Induction (Human NOD2): slight inhibitory effect | Fold Induction (Human NOD2; listed as Ami): 17 | Fold Induction (Human Dectin-1b; +Curdlan 100 μg/mL, No Sample 4, Control− 1): 4 | Fold Induction (Human Dectin-1b; +WGP Soluble 5 ng/mL, No Sample 1, Control− 1): 1 | Fold Induction (Human Dectin-1b; +Zymosan Depleted 3 μg/mL, No Sample 7, Control− 1): slight inhibitory effect | Fold Induction (Human Dectin-1b; +Zymosan Depleted 3 μg/mL, No Sample 7, Control− 1, listed as Ami): 6
